From ChEMBL document CHEMBL5131437, “Development of novel 2-aminoalkyl-6-(2-hydroxyphenyl)pyridazin-3(2H)-one derivatives as balanced multifunctional agents against Alzheimer's disease” (Eur J Med Chem, 2022)
Calls of active or inactive are those of the source. The calls are words filed in the database; no cut-off is given here.

Columns and labels:
[1] = Ratio of drug concentration in brain to plasma of mouse at 30 mg/kg administered intragastrically measured after 0.5 hrs; format: ADME, organism-based; settings: po, route ig, read-out: logBB (converted)
Mus musculus [2] = experiment: Antialzheimer activity against scopolamine-induced cognitive deficit mouse model assessed as increase in AChE content at 5.9 mg/kg, IG by step-through passive avoidance test; format: functional
BV-2 [3] = experiment: Anti-neuroinflammation activity in mouse BV-2 cells assessed as decrease in LPS-induced TNFalpha production at 2.5 uM by ELISA; format: functional; design: scale not given: the % may be the effect or the level left
Mus musculus [4] = experiment: Antialzheimer activity against scopolamine-induced cognitive deficit mouse model assessed as decrease in lipid peroxidation at 2.0 mg/kg, IG by step-through passive avoidance test; format: functional
BV-2 [5] = experiment: Anti-neuroinflammation activity in mouse BV-2 cells assessed as decrease in LPS-induced TNF-alpha production at 10 uM by ELISA; format: functional; design: scale not given: the % may be the effect or the level left
Mus musculus [6] = experiment: Antialzheimer activity against scopolamine-induced cognitive deficit mouse model assessed as increase in AChE content at 17.7 mg/kg, IG by step-through passive avoidance test; format: functional
[7] = target: Amyloid-beta precursor protein (Homo sapiens) (UniProt P05067); experiment: Inhibition of amyloid beta (1 to 42 ) (unknown origin) self-induced amyloid beta (1 to 42 ) disaggregation at 25 uM pre incubated for 24 hrs to form fibril followed by compound addition incubated for another 24 hrs by Thioflavin T based fluorometric assay
Sequence of Amyloid-beta precursor protein (Homo sapiens) (P05067 whole entry, the tested form may be a part): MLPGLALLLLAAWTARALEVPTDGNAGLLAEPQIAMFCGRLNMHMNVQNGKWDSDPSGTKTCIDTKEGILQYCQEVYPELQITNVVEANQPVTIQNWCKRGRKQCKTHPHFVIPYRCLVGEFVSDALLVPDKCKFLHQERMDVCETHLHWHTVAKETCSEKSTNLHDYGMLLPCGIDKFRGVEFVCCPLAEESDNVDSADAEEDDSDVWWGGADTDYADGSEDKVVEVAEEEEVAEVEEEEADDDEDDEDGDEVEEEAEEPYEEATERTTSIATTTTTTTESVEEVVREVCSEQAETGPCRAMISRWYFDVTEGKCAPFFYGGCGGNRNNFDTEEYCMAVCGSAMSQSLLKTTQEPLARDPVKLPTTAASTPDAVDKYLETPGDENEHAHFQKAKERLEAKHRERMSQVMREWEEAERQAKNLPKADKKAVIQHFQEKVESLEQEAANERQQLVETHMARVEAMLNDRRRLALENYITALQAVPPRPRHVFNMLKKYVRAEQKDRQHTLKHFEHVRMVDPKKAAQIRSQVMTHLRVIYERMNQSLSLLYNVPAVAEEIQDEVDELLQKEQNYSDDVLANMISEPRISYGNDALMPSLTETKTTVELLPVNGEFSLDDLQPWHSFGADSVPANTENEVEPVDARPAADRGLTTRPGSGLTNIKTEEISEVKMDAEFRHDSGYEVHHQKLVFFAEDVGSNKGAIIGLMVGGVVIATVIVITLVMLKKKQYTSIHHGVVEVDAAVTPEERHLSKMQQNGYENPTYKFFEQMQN

[8] = target: Amyloid-beta precursor protein (Homo sapiens) (UniProt P05067); experiment: Inhibition of Cu2+ induced amyloid beta (1 to 42 ) (unknown origin) aggregation assessed as fibrils formation at 25 uM pre incubated for 24 hrs followed by compound addition incubated for another 24 hrs by Thioflavin T based fluorometric assay
Mus musculus [9] = experiment: Antialzheimer activity against scopolamine-induced cognitive deficit mouse assessed as improvement in memory impairment by measuring latency time administrated intragastric by step-through passive avoidance test; format: functional, organism-based; settings: dose 2-17.7 mg/kg, route ig, DDE = dose-dependent effect
[10] = Metal chelating activity assessed as AL3+-compound complex by measuring enhancement of absorption intensity at 246 nm by UV-visible spectrophotometry
Mus musculus [11] = experiment: Antialzheimer activity against scopolamine-induced cognitive deficit mouse model assessed as increase in vitality of SOD at 5.9 mg/kg, IG by step-through passive avoidance test; format: functional
[12] = Drug concentration in mouse plasma at 30 mg/kg administered intragastrically measured after 0.5 hrs; format: ADME, organism-based; settings: po
Acetylcholinesterase = Acetylcholinesterase (Electrophorus electricus, UniProt O42275); experiment: Inhibition of electric eel AChE by Ellman's method; settings: read-out: IC50
Sequence of Acetylcholinesterase (O42275 whole entry, the tested form may be a part): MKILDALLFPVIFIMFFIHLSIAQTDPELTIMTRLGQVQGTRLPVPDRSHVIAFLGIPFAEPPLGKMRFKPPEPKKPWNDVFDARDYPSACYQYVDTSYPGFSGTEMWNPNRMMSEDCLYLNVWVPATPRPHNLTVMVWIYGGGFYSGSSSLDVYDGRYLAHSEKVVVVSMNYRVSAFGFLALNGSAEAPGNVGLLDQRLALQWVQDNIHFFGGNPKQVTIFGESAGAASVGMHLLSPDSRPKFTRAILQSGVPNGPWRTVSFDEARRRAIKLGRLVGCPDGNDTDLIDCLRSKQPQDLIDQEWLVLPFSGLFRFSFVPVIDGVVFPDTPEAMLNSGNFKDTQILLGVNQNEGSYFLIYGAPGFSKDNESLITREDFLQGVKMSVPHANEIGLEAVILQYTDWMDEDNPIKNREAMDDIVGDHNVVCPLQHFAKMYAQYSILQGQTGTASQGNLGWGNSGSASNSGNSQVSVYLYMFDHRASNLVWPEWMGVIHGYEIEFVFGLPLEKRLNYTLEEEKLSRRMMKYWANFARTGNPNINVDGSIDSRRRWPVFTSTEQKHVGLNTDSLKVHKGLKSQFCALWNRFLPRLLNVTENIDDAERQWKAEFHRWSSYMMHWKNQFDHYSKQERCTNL

[13] = target: Amyloid-beta precursor protein (Homo sapiens) (UniProt P05067); experiment: Inhibition of Cu2+ induced amyloid beta (1 to 42 residues) (unknown origin) assessed as disaggregation at 25 uM relative to control; design: scale not given: the % may be the effect or the level left
[14] = Drug concentration in mouse brain at 30 mg/kg administered intragastrically measured after 0.5 hrs; format: ADME, organism-based; settings: po, route ig, read-out: Ct
BV-2 [15] = experiment: Anti-neuroinflammation activity in mouse BV-2 cells assessed as decrease in LPS-induced TNF-alpha production at 0.5 uM by ELISA; format: functional; design: scale not given: the % may be the effect or the level left; settings: time 24 hrs
[16] = Inhibition of reactive oxygen species production using Cu-ascorbate redox system by coumarin-3-carboxylic acid dye based fluorescence analysis; format: functional
Mus musculus [17] = experiment: Antialzheimer activity against scopolamine-induced cognitive deficit mouse model assessed as increase in vitality of SOD at 2.0 mg/kg, IG by step-through passive avoidance test; format: functional
Mus musculus [18] = experiment: Antialzheimer activity against scopolamine-induced cognitive deficit mouse model assessed as decrease in lipid peroxidation at 17.7 mg/kg, IG by step-through passive avoidance test; format: functional
[19] = target: Amyloid-beta precursor protein (Homo sapiens) (UniProt P05067); experiment: Inhibition of Cu2+ induced amyloid beta (1 to 42 residues) (unknown origin) disaggregation; settings: concentration not given here
[20] = Antioxidant activity of compound assessed as trolox equivalent of ORAC radical scavenging activity by ORAC-FL assay; format: functional
[21] = target: Amyloid-beta precursor protein (Homo sapiens) (UniProt P05067); experiment: Inhibition of self-induced amyloid beta (1 to 42) (unknown origin) disaggregation by Thioflavin T based fluorometric assay relative to control; design: concentration or dose not given beside the values; settings: concentration not given here
[22] = Metal chelating activity assessed as Cu2+-compound complex by measuring enhancement of absorption intensity at 246 nm by UV-visible spectrophotometry
Mus musculus [23] = experiment: Antialzheimer activity against scopolamine-induced cognitive deficit mouse model assessed as increase in vitality of SOD at 17.7 mg/kg, IG by step-through passive avoidance test; format: functional
[24] = target: Amyloid-beta precursor protein (Homo sapiens) (UniProt P05067); experiment: Inhibition of Cu2+ induced amyloid beta (1 to 42 residues) (unknown origin) aggregation at 25 uM relative to control
[25] = Metal chelating activity assessed as Zn2+-compound complex by measuring enhancement of absorption intensity at 246 nm by UV-visible spectrophotometry
BV-2 [26] = experiment: Anti-neuroinflammation activity in mouse BV-2 cells assessed as decrease in LPS-induced TNFalpha production at 10 uM by ELISA; format: functional; design: scale not given: the % may be the effect or the level left
[27] = Permeability of the compound in PBS/EtOH buffer (70:30) by PAMPA-BBB assay; format: ADME; settings: read-out: permeability
[28] = Metal chelating activity assessed as Fe2+-compound complex by measuring enhancement of absorption intensity at 246 nm by UV-visible spectrophotometry
Mus musculus [29] = experiment: Neuroprotective activity in scopolamine-induced cognitive deficit mouse assessed as improvement in memory impairment at 5.9 mg/kg, IG in presence of donepezil at 5.0 mg/kg; format: functional, organism-based
BV-2 [30] = experiment: Anti-neuroinflammation activity in mouse BV-2 cells assessed as decrease in LPS-induced TNFalpha production at 0.5 uM by ELISA; format: functional; design: scale not given: the % may be the effect or the level left
Mus musculus [31] = experiment: Antialzheimer activity against scopolamine-induced cognitive deficit mouse assessed as improvement in memory impairment by measuring reduction in number of errors administrated intragastric by step-through passive avoidance test; format: functional, organism-based; settings: dose 2-17.7 mg/kg, route ig, DDE = dose-dependent effect
BV-2 [32] = experiment: Anti-neuroinflammation activity in mouse BV-2 cells assessed as decrease in LPS-induced TNF-alpha production at 2.5 uM by ELISA; format: functional; design: scale not given: the % may be the effect or the level left; settings: time 24 hrs
[33] = Neurotoxicity in scopolamine-induced cognitive deficit mouse model measured after re-increasement at 2.0 to 17.7 mg/kg, IG; format: toxicity, organism-based; settings: in vivo, po, dose 2-17.7 mg/kg
[34] = target: Amyloid-beta precursor protein (Homo sapiens) (UniProt P05067); experiment: Inhibition of self-induced amyloid beta (1 to 42) (unknown origin) aggregation by Thioflavin T based fluorometric assay relative to control; design: concentration or dose not given beside the values; settings: concentration not given here
Mus musculus [35] = experiment: Antialzheimer activity against scopolamine-induced cognitive deficit mouse model assessed as decrease in lipid peroxidation at 5.9 mg/kg, IG by step-through passive avoidance test; format: functional
[36] = target: Amyloid-beta precursor protein (Homo sapiens) (UniProt P05067); experiment: Inhibition of amyloid beta (1 to 42 ) (unknown origin) self-induced aggregation assessed as reduction in number of amyloid beta (1 to 42 residues) fibrils at 25 uM incubated for 24 hrs by Thioflavin T based fluorometric assay
[37] = system: Butyrylcholinesterase (Rattus norvegicus); experiment: Inhibition of rat serum BuChE at 10 uM by Ellman's method relative to control
[38] = Metal chelating activity assessed as Fe3+-compound complex by measuring enhancement of absorption intensity at 246 nm by UV-visible spectrophotometry
[39] = target: Amyloid-beta precursor protein (Homo sapiens) (UniProt P05067); experiment: Inhibition of Cu2+ induced amyloid beta (1 to 42 residues) (unknown origin) aggregation; settings: concentration not given here
[40] = target: Amyloid-beta precursor protein (Homo sapiens) (UniProt P05067); experiment: Inhibition of Cu2+ induced amyloid beta (1 to 42 ) (unknown origin) aggregation assessed as fibrils incubated for 24 hrs by compound addition incubated for 24 hrs

CCN(CCCCCCn1nc(-c2cc(N(C)C)ccc2O)ccc1=O)Cc1ccccc1N(C)C
Kp at 0.5 h [1]: 0.245 | Activity (Mus musculus [2]): 27.3 µg/mg | Activity (BV-2 [3]): 46.8% | Activity (Mus musculus [4]): 2.73 nmol/mg | Activity (BV-2 [5]): 73.7% | Activity (Mus musculus [6]): 30.3 µg/mg | inhibition [7]: Active | Activity [8]: Active | Activity (Mus musculus [9]): Dde | Activity [10]: Active | Activity (Mus musculus [11]): 146.67 U/mg | concentration at 0.5 h [12]: 324 ng/mL | IC50 (Acetylcholinesterase): 0.2 µM | Activity [13]: 94.8% | concentration at 0.5 h [14]: 82.9 ng/g | Activity (BV-2 [15]): 26.3% | inhibition [16]: Active | Activity (Mus musculus [17]): 131.33 U/mg | Activity (Mus musculus [18]): 2.04 nmol/mg | inhibition [19]: 1.17% | Activity [20]: 3.03 | inhibition [21]: 89% | Activity [22]: Active | Activity (Mus musculus [23]): 161.02 U/mg | inhibition [24]: 99.6% | Activity [25]: Active | Activity (BV-2 [26]): 70.2% | Papp at 16 h [27]: 13.5 ×10⁻⁶ cm/s | Activity [28]: Active | Activity (Mus musculus [29]): Active | Activity (BV-2 [30]): 35.4% | Activity (Mus musculus [31]): Dde | Activity (BV-2 [32]): 52.6% | Activity [33]: Non-Toxic | inhibition [34]: 99.1% | Activity (Mus musculus [35]): 2.33 nmol/mg | inhibition [36]: Active | inhibition [37]: 18.2% | Activity [38]: Active | inhibition [39]: 2.18% | Activity [40]: Active
